{
  "source": "paper PMC13079396",
  "about": "“Use of a cytochrome P450 humanized mouse model to refine schistosomiasis drug discovery” (Proceedings of the National Academy of Sciences of the …, 2026)",
  "key": {"[1]": {"assay": "Range-finding PK study, uninfected 8HUM mice, oral rac-PZQ", "format": "in vivo, mouse", "conditions": "for AUC(0-t) / Cmax: female, mouse, whole blood, uninfected 8HUM mice, single oral 25 mg/kg rac-PZQ, total blood, n = 2", "experimental": "Dose formulations were prepared on the day of dosing. […] Supernatants were analysed by LC-MS/MS immediately. […] Chromatographic separation was […] […] […] used. […] Intrinsic clearance determination […] […] Lower […] […] Analytical acceptance criteria were reported previously (1)."}, "[2]": {"assay": "PK in S. mansoni infected WT mice, oral rac-PZQ", "format": "in vivo", "conditions": "female, mouse, whole blood, single oral 400 mg/kg rac-PZQ at 41 d postinfection, total blood, n = 3"}, "[3]": {"assay": "PK in S. mansoni infected 8HUM mice, oral rac-PZQ", "format": "in vivo", "conditions": "female, mouse, whole blood, total blood, n = 3"}, "[4]": {"assay": "Range-finding PK study, uninfected WT mice, oral rac-PZQ", "conditions": "female, WT (wild-type), mouse, whole blood, 400 mg/kg"}, "[5]": {"format": "in vitro ADME", "conditions": "mouse, microsomes"}, "[6]": {"format": "in vitro ADME", "conditions": "human, microsomes", "experimental": "Supernatants were analysed by LC-MS/MS immediately. […] Chromatographic separation was achieved using a previously described method (2) with minor modifications. […] The flow rate was 1.2 mL/min. […] used. […] Intrinsic clearance determination […] Lower […]"}, "S. mansoni [7]": {"test_system": "S. mansoni", "assay": "PZQ-induced efficacy (worm and egg burden reduction) in S. mansoni infected WT mice", "format": "in vivo, Schistosoma mansoni", "text": "(§1) Lower […] Analytical acceptance criteria were reported previously (1). […] Reactions were […]"}, "S. mansoni [8]": {"test_system": "S. mansoni", "assay": "PZQ-induced efficacy (worm and egg burden reduction) in S. mansoni infected 8HUM mice", "format": "in vivo, Schistosoma mansoni", "conditions": "for worm burden reduction: day 47", "text": "as §1"}, "S. mansoni [9]": {"test_system": "S. mansoni", "conditions": "cited from earlier work"}, "[10]": {"conditions": "single oral 400 mg/kg, day 47, 400 mg/kg"}},
  "note": "Several values for one entry are separate records, joined by “and”; a condition that tells them apart may be missing. Identical values can stand only once. Like-named read-outs stand apart in the source and are kept apart here.",
  "data": [
    {"smiles": "O=C(C1CCC(O)CC1)N1CC(=O)N2CCc3ccccc3C2C1", "note": "(stereo not drawn) [4OH-PZQ]", "values": [
      {"measurement": "AUClast and Cmax in 8HUM animals, fold lower compared to WT animals", "setting": "[1]; 8HUM 25 mg/kg vs WT 400 mg/kg rac-PZQ, oral, uninfected", "value": "~ fivefold"},
      {"measurement": "AUC(0-t)", "setting": "[1]", "value": 19400, "unit": "ng·h/mL"},
      {"measurement": "Cmax", "setting": "[1]", "value": 5360, "unit": "ng/mL"},
      {"measurement": "AUC(0-t)", "setting": "[2]", "value": 197000, "unit": "ng·h/mL"},
      {"measurement": "Cmax", "setting": "[2]", "value": 42600, "unit": "ng/mL"},
      {"measurement": "AUC(0-t)", "setting": "[3]; single oral 100 mg/kg rac-PZQ", "value": 108000, "unit": "ng·h/mL"},
      {"measurement": "Cmax", "setting": "[3]; single oral 100 mg/kg rac-PZQ", "value": 21700, "unit": "ng/mL"},
      {"measurement": "AUC(0-t)", "setting": "[3]; single oral 200 mg/kg rac-PZQ", "value": 19400, "unit": "ng·h/mL"},
      {"measurement": "Cmax", "setting": "[3]; single oral 200 mg/kg rac-PZQ", "value": 5360, "unit": "ng/mL"},
      {"measurement": "AUC(0-t)", "setting": "[4]", "value": 98500, "unit": "ng·h/mL"},
      {"measurement": "Cmax", "setting": "[4]", "value": 27600, "unit": "ng/mL"}
    ]},
    {"smiles": "O=C(C1CCCCC1)N1CC(=O)N2CCc3ccccc3[C@@H]2C1", "note": "[R-PZQ]", "values": [
      {"measurement": "AUC(0-t)", "setting": "[1]", "value": 2860, "unit": "ng·h/mL"},
      {"measurement": "Cmax", "setting": "[1]", "value": 2210, "unit": "ng/mL"},
      {"measurement": "AUC(0-t)", "setting": "[2]", "value": 73600, "unit": "ng·h/mL"},
      {"measurement": "Cmax", "setting": "[2]", "value": 25800, "unit": "ng/mL"},
      {"measurement": "AUC(0-t)", "setting": "[3]; single oral 100 mg/kg rac-PZQ", "value": 25700, "unit": "ng·h/mL"},
      {"measurement": "Cmax", "setting": "[3]; single oral 100 mg/kg rac-PZQ", "value": 13200, "unit": "ng/mL"},
      {"measurement": "AUC(0-t)", "setting": "[3]; single oral 200 mg/kg rac-PZQ", "value": 68300, "unit": "ng·h/mL"},
      {"measurement": "Cmax", "setting": "[3]; single oral 200 mg/kg rac-PZQ", "value": 20800, "unit": "ng/mL"},
      {"measurement": "AUC(0-t)", "setting": "[4]", "value": 12000, "unit": "ng·h/mL"},
      {"measurement": "Cmax", "setting": "[4]", "value": 7740, "unit": "ng/mL"}
    ]},
    {"smiles": "O=C(C1CCCCC1)N1CC(=O)N2CCc3ccccc3C2C1", "note": "(racemic) [rac-PZQ, praziquantel]", "values": [
      {"measurement": "Microsomal CLint", "setting": "[5]", "value": 2.7, "unit": "mL/min/g"},
      {"measurement": "Microsomal CLint", "setting": "[6]", "value": 3.2, "unit": "mL/min/g"},
      {"measurement": "reduction in adult worm burdens", "setting": "S. mansoni [7]; single oral 400 mg/kg at 41 d postinfection, day 47, vs excipient controls", "value": 93, "unit": "%"},
      {"measurement": "worm burden reduction, females", "setting": "S. mansoni [7]; [10]", "value": 95, "unit": "%"},
      {"measurement": "worm burden reduction, males", "setting": "S. mansoni [7]; [10]", "value": 90, "unit": "%"},
      {"measurement": "worm burden reduction", "setting": "S. mansoni [8]; 8HUM mice, single oral 100 mg/kg, 100 mg/kg", "value": 92, "unit": "%"},
      {"measurement": "worm burden reduction", "setting": "S. mansoni [8]; 8HUM mice, single oral 100 mg/kg, listed as PZQ, 100 mg/kg", "value": "> 90", "unit": "%"},
      {"measurement": "worm burden reduction", "setting": "S. mansoni [8]; 8HUM mice, single oral 200 mg/kg", "value": 98, "unit": "%"},
      {"measurement": "reductions in worm burdens", "setting": "S. mansoni [8]; 8HUM mice, single oral doses of 100 to 200 mg/kg bodyweight", "value": "> 90", "unit": "%"},
      {"measurement": "increase in efficacy in 8HUM mice vs WT mice at the same dose", "setting": "S. mansoni [8]; single 100 mg/kg oral dose, 8HUM (this study) vs WT (ref 7)", "value": "approximately twofold"},
      {"measurement": "drug-induced efficacy (worm burden reduction)", "setting": "S. mansoni [9]; WT animals, single oral dose of 400 mg/kg rac-PZQ, 400 mg/kg", "value": "~ 94% and > 90%"},
      {"measurement": "reduction in worm burden", "setting": "S. mansoni [9]; WT mice, single 100 mg/kg bodyweight oral dose, at most", "value": "≤ 53", "unit": "%"}
    ]}
  ]
}
